Results published in PubChem BioAssay AID1963985 (Molecular Pharmacology Branch, DTP, NCI, 2024).

System: 252836-082-R-J2-PDC tumor spheroids, viability
Assay: Anticancer human tumor 252836-082-R-J2-PDC patient-derived head and neck squamous cell carcinoma cell line growth inhibition [PI3K]
Conditions: spheroids with HUVEC and MSC; for IC50: curve of first compound; for viability, T/C: stronger effect = lower value
In short: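 Three cell types, namely tumor cells, endothelial cells and mesenchymal stem cells, formed each spheroid. Combinations with four PI3K inhibitors were screened at clinically achievable concentrations decreasing by half-log, and spheroid viability was recorded.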

[1] = second compound 0.0316 µM, first compound 0.0316 µM
[2] = second compound 0.0316 µM, first compound 0.1 µM
[3] = second compound 0.1 µM, first compound 0.0316 µM
[4] = second compound 0.1 µM, first compound 0.1 µM
[5] = second compound 0.316 µM, first compound 0.0316 µM
[6] = second compound 0.316 µM, first compound 0.1 µM
[7] = second compound 1 µM, first compound 0.0316 µM
[8] = second compound 1 µM, first compound 0.1 µM
[9] = second compound 3.16 µM, first compound 0.0316 µM
[10] = second compound 3.16 µM, first compound 0.1 µM
[11] = second compound 10 µM, first compound 0.0316 µM
[12] = second compound 10 µM, first compound 0.1 µM
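Further: spheroids exposed to agents for seven days before readout.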
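Wherever viability, T/C is given: percent of vehicle DMSO control viability so 100% = untreated growth.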

In the case of `C[C@@H](NC(=O)c1ncnc(N)c1Cl)c1ncc(C(=O)Nc2cc(C(F)(F)F)c(Cl)cn2)s1` + Cc1nc(NC(=O)N2CCCC2C(N)=O)sc1-c1ccnc(C(C)(C)C(F)(F)F)c1, the IC50 (second compound 0.0316 µM) is reported as over 10000 nM, the IC50 (second compound 0.1 µM) is reported as over 10000 nM and the IC50 (second compound 0.316 µM) is reported as over 10000 nM. For the same molecule, the IC50 (second compound 1 µM) was over 10000 nM, the IC50 (second compound 3.16 µM) was under 31.6 nM and the IC50 (second compound 10 µM) was under 31.6 nM. The viability, T/C [1] was 95.5%, the viability, T/C [2] was 84.1% and the viability, T/C (second compound 0.0316 µM, first compound 0.316 µM) was 88.9%. The viability, T/C (second compound 0.0316 µM, first compound 1 µM) was 81.2%, the viability, T/C (second compound 0.0316 µM, first compound 3.16 µM) was 76.9% and the viability, T/C (second compound 0.0316 µM, first compound 10 µM) was 82.5%. It also gave a viability, T/C [3] of 79.7%, a viability, T/C [4] of 70.8% and a viability, T/C (second compound 0.1 µM, first compound 0.316 µM) of 85.2%. The viability, T/C (second compound 0.1 µM, first compound 1 µM) was 74.1%, the viability, T/C (second compound 0.1 µM, first compound 3.16 µM) was 85.9% and the viability, T/C (second compound 0.1 µM, first compound 10 µM) was 74.1%. It also gave a viability, T/C [5] of 72%, a viability, T/C [6] of 79.2% and a viability, T/C (second compound 0.316 µM, first compound 0.316 µM) of 69.8%. It also gave a viability, T/C (second compound 0.316 µM, first compound 1 µM) of 78.4%, a viability, T/C (second compound 0.316 µM, first compound 3.16 µM) of 74.7% and a viability, T/C (second compound 0.316 µM, first compound 10 µM) of 69.7%. The viability, T/C [7] was 58.6%, the viability, T/C [8] was 62% and the viability, T/C (second compound 1 µM, first compound 0.316 µM) was 61.9%. For the same molecule, the viability, T/C (second compound 1 µM, first compound 1 µM) was 54.9%, the viability, T/C (second compound 1 µM, first compound 3.16 µM) was 61.3% and the viability, T/C (second compound 1 µM, first compound 10 µM) was 50.8%. The viability, T/C [9] was 40%, the viability, T/C [10] was 48.6% and the viability, T/C (second compound 3.16 µM, first compound 0.316 µM) was 43.2%. It also gave a viability, T/C (second compound 3.16 µM, first compound 1 µM) of 42.5%, a viability, T/C (second compound 3.16 µM, first compound 3.16 µM) of 42.4% and a viability, T/C (second compound 3.16 µM, first compound 10 µM) of 42.9%. For the same molecule, the viability, T/C [11] was 35.2%, the viability, T/C [12] was 39.6% and the viability, T/C (second compound 10 µM, first compound 0.316 µM) was 35.2%. For the same molecule, the viability, T/C (second compound 10 µM, first compound 1 µM) was 30.6%, the viability, T/C (second compound 10 µM, first compound 3.16 µM) was 23.4% and the viability, T/C (second compound 10 µM, first compound 10 µM) was 12.6%.
`Cn1ncnc1[C@H]1c2n[nH]c(=O)c3cc(F)cc(c23)N[C@@H]1c1ccc(F)cc1` + Cc1nc(NC(=O)N2CCCC2C(N)=O)sc1-c1ccnc(C(C)(C)C(F)(F)F)c1 was tested, and the IC50 (second compound 0.0316 µM) was over 100 nM, the IC50 (second compound 0.1 µM) was over 100 nM and the IC50 (second compound 0.316 µM) was over 100 nM. It also gave an IC50 (second compound 1 µM) of 17.2 nM, an IC50 (second compound 3.16 µM) of under 0.316 nM and an IC50 (second compound 10 µM) of under 0.316 nM. It also gave a viability, T/C (second compound 0.0316 µM, first compound 0.000316 µM) of 88.5%, a viability, T/C (second compound 0.0316 µM, first compound 0.001 µM) of 94.1% and a viability, T/C (second compound 0.0316 µM, first compound 0.00316 µM) of 96.9%. The viability, T/C (second compound 0.0316 µM, first compound 0.01 µM) was 76.2%, the viability, T/C [1] was 75.2% and the viability, T/C [2] was 58.5%. The viability, T/C (second compound 0.1 µM, first compound 0.000316 µM) was 80.2%, the viability, T/C (second compound 0.1 µM, first compound 0.001 µM) was 71.3% and the viability, T/C (second compound 0.1 µM, first compound 0.00316 µM) was 83.4%. It also gave a viability, T/C (second compound 0.1 µM, first compound 0.01 µM) of 65.6%, a viability, T/C [3] of 78.5% and a viability, T/C [4] of 58.4%. It also gave a viability, T/C (second compound 0.316 µM, first compound 0.000316 µM) of 62.3%, a viability, T/C (second compound 0.316 µM, first compound 0.001 µM) of 70.8% and a viability, T/C (second compound 0.316 µM, first compound 0.00316 µM) of 66.6%. The viability, T/C (second compound 0.316 µM, first compound 0.01 µM) was 57.6%, the viability, T/C [5] was 55.6% and the viability, T/C [6] was 50.6%. The viability, T/C (second compound 1 µM, first compound 0.000316 µM) was 58.5%, the viability, T/C (second compound 1 µM, first compound 0.001 µM) was 59.2% and the viability, T/C (second compound 1 µM, first compound 0.00316 µM) was 53.9%. For the same molecule, the viability, T/C (second compound 1 µM, first compound 0.01 µM) was 61.7%, the viability, T/C [7] was 40.6% and the viability, T/C [8] was 32.4%. For the same molecule, the viability, T/C (second compound 3.16 µM, first compound 0.000316 µM) was 42.7%, the viability, T/C (second compound 3.16 µM, first compound 0.001 µM) was 48.8% and the viability, T/C (second compound 3.16 µM, first compound 0.00316 µM) was 39%. It also gave a viability, T/C (second compound 3.16 µM, first compound 0.01 µM) of 44.7%, a viability, T/C [9] of 40.4% and a viability, T/C [10] of 23.4%. The viability, T/C (second compound 10 µM, first compound 0.000316 µM) was 31.8%, the viability, T/C (second compound 10 µM, first compound 0.001 µM) was 38.5% and the viability, T/C (second compound 10 µM, first compound 0.00316 µM) was 33.6%. The viability, T/C (second compound 10 µM, first compound 0.01 µM) was 26.5%, the viability, T/C [11] was 21.9% and the viability, T/C [12] was 21.6%.
